According to patent US11458099B2, “Inhalable antimicrobial particles and methods of making the same” (The Penn State Research Foundation, priority 2017, dated 2022):
≈ marks a conversion by molar mass, not a printed value. Ends that are not written are not given here.

Experiments:
[1] = Cargo release from nanogels by dialysis into 37° C. PBS; assay type: physicochemical; settings: from N:P 10 nanogel carrier
Description: Loaded BNCs in DI water were injected into 300 kDa MWCO dialysis tubing. The tubing was submerged in a 30× (by volume) bath of PBS. At predetermined time points, multiple samples (n≥3) were collected from multiple locations throughout the bath. These samples were pooled and release was characterized in the same method used for assessing initial loading. Before each measurement, volume was adjusted to that of the initial bath to ensure concentration consistency.
Next, physiologic release of the encapsulated cargo was assessed by loading each nanogel formulation into a dialysis cassette and suspending it in a release media of 37° C. PBS. The concentration of loaded drug or GFP liberated to the dialysis media was then monitored as a function of time via UV-Vis or fluorescence spectroscopy, respectively. […] The majority of encapsulated protein (>75%) was retained within the nanogel carrier for the first 24 hours, followed by a rapid release phase that occurred between 24 and 72 hours.

growing MTb = test: KKL-35 viability of growing MTb cultures, plating assay; assay type: cell-based, Mycobacterium tuberculosis; settings: FIG. 5A
[2] = test system: dormant persister cells (MTb); test: KKL-35 viability of non-replicating MTb, Wayne model; assay type: cell-based, Mycobacterium tuberculosis; settings: 3 days, FIG. 5B
physchem = settings: water
A. baumannii (−) = test: MIC of VAN, NGVAN, NG (broth dilution); assay type: cell-based; settings: Acinetobacter baumannii, read-out: MIC of VAN
Description: (§1) 2× Dilutions of treatments in broth were plated into a U-bottom 96 well plate. Overnight cultures of Pseudomonas aeruginosa, Escherichia coli, Acinetobacter baumannii, Salmonella enterica and Staphylococcus aureus were incubated in cation adjusted Mueller-Hinton broth as advised by CLSI. Bacteria were diluted to an OD600 of 0.002 and plated in a 1:1 volume ratio with the treatments. These cultures were incubated overnight and MIC values were assessed by visual evaluation of growth inhibition when compared to untreated samples.

E. coli (−) = test: MIC of VAN, NGVAN, NG (broth dilution); assay type: cell-based; settings: Escherichia coli, drug or equivalent concentration of drug loaded into nanogels
Description: as §1

P. aeruginosa (−) = test: MIC of VAN, NGVAN, NG (broth dilution); assay type: cell-based; settings: Pseudomonas aeruginosa, read-out: MIC of VAN
Description: as §1

S. enterica (−) = test: MIC of VAN, NGVAN, NG (broth dilution); assay type: cell-based; settings: Salmonella enterica, drug or equivalent concentration of drug loaded into nanogels
Description: as §1

S. aureus (+) = test: MIC of VAN, NGVAN, NG (broth dilution); assay type: cell-based, Staphylococcus aureus; settings: S. aureus vs four gram-negative pathogens
Description: as §1

[3] = test system: panel of gram-negative and gram-positive bacterial pathogens; test: Antibacterial activity against the whole panel; assay type: cell-based; settings: four different gram-negative pathogens; highest concentration tested
Description: as §1
Next, the antibacterial activity of VAN-loaded nanogels were evaluated against a panel of gram-negative and gram-positive bacterial pathogens (Table 5). It is important to note that clinical use of VAN is generally excluded to gram-positive infections as most gram-negative pathogens are innately resistant to the drug. This is due to the thick outer membrane of gram-negative bacteria which prevents the large glycopeptide drug from diffusing into the cell wall and reaching its enzymatic target.

MS S. aureus = test: MIC of AMPs; assay type: cell-based; settings: Gram +
P. aeruginosa = test: MIC of AMPs; assay type: cell-based; settings: Gram −
A. baumannii = test: MIC of AMPs; assay type: cell-based; settings: Gram −
S. enterica = test: MIC of AMPs; assay type: cell-based; settings: Gram −
H. influenzae = test: MIC of AMPs; assay type: cell-based; settings: Gram −
M. smegmatis [4] = test: MIC of AMPs; assay type: cell-based; settings: Gram +/−
MR S. aureus = settings: Gram +
B. anthrax = settings: Gram +
M. tuberculosis [5] = settings: Gram +/−
M. tuberculosis [6] = settings: minimum concentration inhibiting 90% culture growth; cited from earlier work
M. smegmatis [7] = settings: minimum concentration inhibiting 90% culture growth; cited from earlier work
[8] = test system: THP-1 human macrophage control cell line; settings: selectivity index at IC90, MTb over THP-1 human macrophage control cell line; cited from earlier work

Compound	MIC (MS S. aureus)	MIC (P. aeruginosa)	MIC (A. baumannii)	MIC (S. enterica)	MIC (H. influenzae)	MIC (M. smegmatis [4])	MIC (MR S. aureus)	MIC (B. anthrax)	MIC (M. tuberculosis [5])	IC90 (M. tuberculosis [6])	IC90 (M. smegmatis [7])	SI90 [8]	also measured
COc1cccc2c1C(=O)c1c(O)c3c(c(O)c1C2=O)C[C@@](O)(C(=O)CO)C[C@@H]3O[C@H]1C[C@H](N)[C@H](O)[C@H](C)O1 [DOX, Doxorubicin]	–	–	–	–	–	–	–	–	–	–	–	–	time to complete release [1]: 48 h; zero-order release rate [1]: ~4 %/hour
O=C(Nc1nnc(-c2ccc(F)cc2)o1)c1ccc(Cl)cc1 [KKL-35, 4-chloro-N-(5-(4-fluorophenyl)-1,3,4-oxadiazol-2-yl)benzamide]	–	–	–	–	–	–	–	–	–	–	–	–	IC towards growing MTb (growing MTb): < 1.6 µg/mL; IC towards dormant persister cells [2]: < 1.6 µg/mL; IC towards human HeLa cells (human HeLa cells): > 500 µg/mL; solubility (physchem): 500 µg/mL (≈ 1570 µM)
CN[C@H](CC(C)C)C(=O)N[C@H]1C(=O)N[C@@H](CC(N)=O)C(=O)N[C@H]2C(=O)N[C@H]3C(=O)N[C@H](C(=O)N[C@H](C(=O)O)c4cc(O)cc(O)c4-c4cc3ccc4O)[C@H](O)c3ccc(c(Cl)c3)Oc3cc2cc(c3O[C@@H]2O[C@H](CO)[C@@H](O)[C@H](O)[C@H]2O[C@H]2C[C@](C)(N)[C@H](O)[C@H](C)O2)Oc2ccc(cc2Cl)[C@H]1O [VAN, Vancomycin]	–	–	–	–	–	–	–	–	–	–	–	–	MIC (A. baumannii (−)): 144 µg/mL; MIC (E. coli (−)): 144 µg/mL; MIC (P. aeruginosa (−)): 144 µg/mL; MIC (S. enterica (−)): 144 µg/mL; times more effective in killing S. aureus than gram-negative pathogens (S. aureus (+)): > 30 times; concentration giving inhibition of bacterial growth [3]: 144 µg/mL; time to 90% drug release ([1]; first order kinetics): ≤ 4 h
H-KRWHWWRRHWVVW-NH2 [SMAS-1]	>80 µM	50 µM	50 µM	80 µM	80 µM	5 µM	>80 µM	>80 µM	3 µM	–	–	–	–
H-WKWLKKWIK-NH2 [Entry 1]	>80 µM	10 µM	25 µM	40 µM	80 µM	20 µM	>80 µM	10 µM	20 µM	1.1 µM	1.9 µM	21.3	–
ILRWKWRWWRWRR-NH2 [Entry 2, cationic antimycobacterial peptide, amidated C-terminus]	–	–	–	–	–	–	–	–	–	–	2.4 µM	21.3	–
KRWWKWWRR-NH2 [Entry 3]	80 µM	20 µM	80 µM	80 µM	80 µM	20 µM	80 µM	80 µM	10 µM	3.1 µM	4.9 µM	51.2	–
RRWWRWVVW-NH2 [Entry 4]	20 µM	80 µM	10 µM	80 µM	40 µM	20 µM	20 µM	20 µM	20 µM	5.6 µM	11.4 µM	32.0	–
